Experiments:
Format in all cases: ADME
[1] = Kinetic parameter Km was determined
[2] = Kinetic parameter Vmax was determined
[3] = Efficiency expressed as ratio of Vmax to that of Km was determined

Structure (SMILES)	Km [1] [µM]	Vmax [2] [pmol/U/min]	Ratio [3]
Nc1ccn([C@H]2C[C@H](O)[C@@H](COP(=O)(O)OP(=O)(O)OP(=O)(O)O)O2)c(=O)n1 [DEOXYCYTIDINE TRIPHOSPHATE]	25.6	18.7	0.73
Nc1ncnc2c1ncn2[C@H]1C[C@H](O)[C@@H](COP(=O)(O)OP(=O)(O)OP(=O)(O)O)O1	22	0.994	0.0452
Nc1nc2c(ncn2[C@H]2C[C@H](O)[C@@H](COP(=O)(O)OP(=O)(O)OP(=O)(O)O)O2)c(=O)[nH]1 [DEOXYGUANOSINE TRIPHOSPHATE]	62	13.1	0.211
